Measured values as given in patent publication US9334286B2, “Pharmacologically active compounds” (Cancer Research Technology Limited, priority 2012, dated 2016).
pIC50: −log10 of the molar value.

Biological target: full length MPS1 (Homo sapiens (Human), UniProt P33981)
Experiment: Measurement of inhibition of MPS1 kinase (Caliper EZ reader, fluorescent labelled peptide H236)
Assay type: biochemical
Settings: full length MPS1 12.5 nM or 3 nM, peptide H236 5 μM, ATP 10 μM, 60 min at room temperature

Sequence of full length MPS1 (P33981 whole entry): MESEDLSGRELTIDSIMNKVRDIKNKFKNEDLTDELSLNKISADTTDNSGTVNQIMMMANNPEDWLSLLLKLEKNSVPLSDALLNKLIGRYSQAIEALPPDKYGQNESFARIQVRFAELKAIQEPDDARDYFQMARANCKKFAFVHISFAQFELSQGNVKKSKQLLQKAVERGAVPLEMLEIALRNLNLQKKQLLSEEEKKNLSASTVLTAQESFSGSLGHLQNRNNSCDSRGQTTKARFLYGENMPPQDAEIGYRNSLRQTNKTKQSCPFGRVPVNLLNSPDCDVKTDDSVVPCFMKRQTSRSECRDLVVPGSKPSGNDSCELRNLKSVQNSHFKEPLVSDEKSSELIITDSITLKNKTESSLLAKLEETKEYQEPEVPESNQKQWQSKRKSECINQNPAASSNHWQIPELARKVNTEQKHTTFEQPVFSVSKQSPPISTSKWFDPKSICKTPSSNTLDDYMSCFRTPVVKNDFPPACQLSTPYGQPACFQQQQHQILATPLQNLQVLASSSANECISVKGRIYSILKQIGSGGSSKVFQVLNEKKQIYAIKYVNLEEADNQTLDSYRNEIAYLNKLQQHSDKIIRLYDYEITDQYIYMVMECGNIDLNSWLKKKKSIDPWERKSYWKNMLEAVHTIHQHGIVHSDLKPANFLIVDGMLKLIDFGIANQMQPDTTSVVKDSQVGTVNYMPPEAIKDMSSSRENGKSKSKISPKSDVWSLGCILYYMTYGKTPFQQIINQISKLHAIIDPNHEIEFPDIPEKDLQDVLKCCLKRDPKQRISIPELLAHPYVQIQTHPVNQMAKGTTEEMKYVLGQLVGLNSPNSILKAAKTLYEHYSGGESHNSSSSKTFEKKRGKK

Row | Structure (SMILES) | pIC50 | IC50 (unit printed as (M)) [M]
1 | COc1cc(-c2cnn(C)c2)ccc1Nc1cc2nc(-c3cnn(C)c3)ccc2cn1 [Example 100, N-(2-Methoxy-4-(1-methyl-1H-pyrazol-4-yl)phenyl)-2-(1-methyl-1H-pyrazol-4-yl)-1,6-naphthyridin-7-amine] | 8.22 | –
2 | COc1cc(-c2cnn(C)c2)ccc1Nc1cc2nc(-c3cnn(CC(C)(C)O)c3)ccc2cn1 [Example 101, 1-(4-(7-(2-Methoxy-4-(1-methyl-1H-pyrazol-4-yl)phenylamino)-1,6-naphthyridin-2-yl)-1H-pyrazol-1-yl)-2-methylpropan-2-ol] | 8.52 | –
3 | CCOc1cc(-c2nncn2C)ccc1Nc1cc2nc(-c3cnn(CC(C)(C)O)c3)ccc2cn1 [Example 103, 1-(4-(7-(2-Ethoxy-4-(4-methyl-4H-1,2,4-triazol-3-yl)phenylamino)-1,6-naphthyridin-2-yl)-1H-pyrazol-1-yl)-2-methylpropan-2-ol] | 9.00 | –
4 | COc1cc(-c2nncn2C)ccc1Nc1cc2nc(-c3cnn(CC(C)(C)O)c3)ccc2cn1 [Example 105, 1-(4-(7-(2-Methoxy-4-(4-methyl-4H-1,2,4-triazol-3-yl)phenylamino)-1,6-naphthyridin-2-yl)-1H-pyrazol-1-yl)-2-methylpropan-2-ol] | 9.00 | –
5 | COc1cc(-c2cnn(C)c2)ccc1Nc1cc2nc(C(=O)N(C)C)ccc2cn1 [Example 107, 7-(2-Methoxy-4-(1-methyl-1H-pyrazol-4-yl)phenylamino)-N,N-dimethyl-1,6-naphthyridine-2-carboxamide] | 6.39 | –
6 | COc1cc(-c2nnc3n2CCNC3)ccc1Nc1cc2cc(-c3cnn(CC(C)(C)O)c3)ccc2cn1 [Example 112, 1-(4-(3-(2-Methoxy-4-(5,6,7,8-tetrahydro-[1,2,4]triazolo[4,3-a]pyrazin-3-yl)phenylamino)-isoquinolin-6-yl)-1H-pyrazol-1-yl)-2-methylpropan-2-ol] | 8.70 | –
7 | COc1cc(-c2cnc(C)n2C)ccc1Nc1cc2cc(-c3cnn(C4CCNCC4)c3)ccc2cn1 [Example 113, N-(4-(1,2-dimethyl-1H-imidazol-5-yl)-2-methoxyphenyl)-6-(1-(piperidin-4-yl)-1H-pyrazol-4-yl)isoquinolin-3-amine] | 8.40 | –

Further lines, results first:

Row | pIC50 | IC50 (unit printed as (M)) [M] | Structure (SMILES)
8 | 8.70 | – | COc1cc(-c2cnc(C)n2C)ccc1Nc1cc2nc(-c3cnn(CC(C)(C)O)c3)ccc2cn1 [Example 102, 1-(4-(7-(4-(1,2-Dimethyl-1H-imidazol-5-yl)-2-methoxyphenylamino)-1,6-naphthyridin-2-yl)-1H-pyrazol-1-yl)-2-methylpropan-2-ol]
9 | 8.70 | – | COc1cc(C(=O)N2CC(OC)C2)ccc1Nc1cc2nc(-c3cnn(CC(C)(C)O)c3)ccc2cn1 [Example 104, (4-(2-(1-(2-Hydroxy-2-methylpropyl)-1H-pyrazol-4-yl)-1,6-naphthyridin-7-ylamino)-3-methoxyphenyl)(3-methoxyazetidin-1-yl)methanone]
10 | 9.00 | – | COc1cc(-c2cnc(C)n2C)ccc1Nc1cc2nc(-c3cnn(CC4(O)CCC4)c3)ccc2cn1 [Example 106, 1-((4-(7-(4-(1,2-Dimethyl-1H-imidazol-5-yl)-2-methoxyphenylamino)-1,6-naphthyridin-2-yl)-1H-pyrazol-1-yl)methyl)cyclobutanol]
11 | 8.52 | – | COc1cc(-c2cnc3n2CCNC3)ccc1Nc1cc2cc(-c3cnn(CC(C)(C)O)c3)ccc2cn1 [Example 111, 1-(4-(3-((2-Methoxy-4-(5,6,7,8-tetrahydroimidazo[1,2-a]pyrazin-3-yl)phenyl)amino)-isoquinolin-6-yl)-1H-pyrazol-1-yl)-2-methylpropan-2-ol]
12 | – | 1.6e-08 | COc1cc(-c2cnc(C)n2C)ccc1Nc1ncc2ccc(-c3cnn(C)c3)nc2n1 [Example 115, N-(4-(1,2-dimethyl-1H-imidazol-5-yl)-2-methoxyphenyl)-7-(1-methyl-1H-pyrazol-4-yl)pyrido[2,3-d]pyrimidin-2-amine]
